For 20 molecules, Ki results are on record in ChEMBL document CHEMBL1139621, “Acyclic cyanamide-based inhibitors of cathepsin K” (Bioorg Med Chem Lett, 2005).

Assay [1] addresses T1, Cathepsin K (Homo sapiens, UniProt P43235).
T1 sequence (P43235 whole entry): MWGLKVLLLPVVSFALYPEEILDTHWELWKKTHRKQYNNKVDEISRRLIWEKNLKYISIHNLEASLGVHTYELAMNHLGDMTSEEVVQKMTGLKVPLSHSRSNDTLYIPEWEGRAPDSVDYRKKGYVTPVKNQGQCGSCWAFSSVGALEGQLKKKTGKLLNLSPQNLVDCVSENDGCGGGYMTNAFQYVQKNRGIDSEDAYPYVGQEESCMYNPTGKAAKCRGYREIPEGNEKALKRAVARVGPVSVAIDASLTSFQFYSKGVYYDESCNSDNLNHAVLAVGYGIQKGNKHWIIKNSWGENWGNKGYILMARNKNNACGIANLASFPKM
Kind of assay: Inhibition constant against human cathepsin K.

For another assay, the target named is Procathepsin L (Homo sapiens, UniProt P07711). Kind of assay: Inhibition constant against human cathepsin L using Cbz-Phe-Arg-AMC.
Sequence of Procathepsin L (P07711 whole entry): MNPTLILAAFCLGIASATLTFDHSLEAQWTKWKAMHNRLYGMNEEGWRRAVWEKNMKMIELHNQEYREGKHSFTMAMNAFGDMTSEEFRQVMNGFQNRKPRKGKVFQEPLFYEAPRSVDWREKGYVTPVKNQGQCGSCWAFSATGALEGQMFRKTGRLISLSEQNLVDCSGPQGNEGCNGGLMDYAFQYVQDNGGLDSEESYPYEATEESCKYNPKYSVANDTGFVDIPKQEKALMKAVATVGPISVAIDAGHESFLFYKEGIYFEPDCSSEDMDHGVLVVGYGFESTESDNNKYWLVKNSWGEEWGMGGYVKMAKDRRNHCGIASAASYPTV
A further assay has as its target Cathepsin B (Homo sapiens, UniProt P07858). Kind of assay: Inhibition constant against human cathepsin B in fluorescence assay using Cbz-Phe-Arg-AMC.
The target in assay [2] is T1, Cathepsin K. Kind of assay: Inhibition constant against human cathepsin K in fluorescence assay using Cbz-Phe-Arg-AMC.
Another assay deals with T2, Pro-cathepsin H (Homo sapiens, UniProt P09668).
T2 sequence (P09668 whole entry): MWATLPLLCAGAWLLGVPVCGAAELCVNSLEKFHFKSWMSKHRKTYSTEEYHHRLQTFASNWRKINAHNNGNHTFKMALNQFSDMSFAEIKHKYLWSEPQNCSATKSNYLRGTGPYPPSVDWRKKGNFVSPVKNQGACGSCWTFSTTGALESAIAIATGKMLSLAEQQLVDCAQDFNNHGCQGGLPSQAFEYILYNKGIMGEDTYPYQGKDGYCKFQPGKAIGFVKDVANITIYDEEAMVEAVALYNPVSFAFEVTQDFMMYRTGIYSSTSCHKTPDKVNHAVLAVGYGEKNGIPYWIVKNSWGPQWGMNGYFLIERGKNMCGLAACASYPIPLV
Kind of assay: Inhibition constant against human cathepsin H using L-Arg-b-naphthalamide.

In assay [3] the target is T3, Cathepsin K (Rattus norvegicus, UniProt O35186).
T3 sequence (O35186 whole entry): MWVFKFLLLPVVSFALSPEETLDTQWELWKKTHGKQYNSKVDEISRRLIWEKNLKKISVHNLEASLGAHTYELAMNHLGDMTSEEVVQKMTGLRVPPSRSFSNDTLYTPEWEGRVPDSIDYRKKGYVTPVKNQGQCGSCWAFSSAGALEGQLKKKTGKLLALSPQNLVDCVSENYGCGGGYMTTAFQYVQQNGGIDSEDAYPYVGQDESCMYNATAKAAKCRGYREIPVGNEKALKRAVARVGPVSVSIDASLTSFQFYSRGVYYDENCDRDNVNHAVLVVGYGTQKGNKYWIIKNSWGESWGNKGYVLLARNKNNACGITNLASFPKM
Kind of assay: Inhibition constant against rat cathepsin K.

`C[C@@H](CC1CCCCC1)OC(=O)[C@@H]1CCCN1C#N`: on Cathepsin K [1], the inhibition constant (Ki) (usually a measure of affinity in units of concentration, obtained from inhibition or displacement) worked out at 1.8 nM.
For `C[C@@H](CC1CCCCC1)OC(=O)CN(C)C#N`, the inhibition constant Ki on Procathepsin L was 1500 nM; at Cathepsin B, 2600 nM; on Cathepsin K [2] it was 26 nM; on Pro-cathepsin H, > 13000 nM.
For the molecule `C[C@@H](CC1CCCCC1)OC(=O)[C@H](C)N(C)C#N`, the Ki at Cathepsin K [2] was 2300 nM.
On the same count and under the same terms, the figure for `C[C@H](C#N)NC(=O)O[C@@H](C)CC1CCCCC1` is > 13000 nM; for `CCCCN(C#N)NC(=O)O[C@@H](C)CC1CCCCC1` it is 0.007 nM.
Regarding `C[C@@H](CC1CCCCC1)OC(=O)NN(C)C#N`, the Ki at Procathepsin L is 0.025 nM; at Cathepsin B, 0.077 nM; at Cathepsin K [2], 0.009 nM; at Pro-cathepsin H, 1.4 nM.
`CCN(C#N)NC(=O)O[C@@H](C)CC1CCCCC1` displayed a Ki on Cathepsin K [2] of 0.003 nM.
Same read-out and setting: the figure for `C[C@@H](C#N)NC(=O)O[C@@H](C)CC1CCCCC1` is > 13000 nM; for `C[C@H](C(=O)O[C@@H](C)CC1CCCCC1)N(C)C#N` it is > 13000 nM.
On the same count and under the same terms, the value for `C[C@@H](CC1CCCCC1)OC(=O)NCC#N` was 7900 nM.
On to `CC[C@@H](Cc1ccccc1)OC(=O)NN(C)C#N`, for which the Ki on Procathepsin L amounted to 0.036 nM; at Cathepsin K [3] it was 0.072 nM; on Cathepsin B it was 0.25 nM; on Cathepsin K [2], 0.032 nM.
`C[C@@H](CC1CCCCC1)OC(=O)NN(C#N)C(C)(C)C` displayed a Ki on Cathepsin K [2] of 1500 nM.
The same measure, in the same setting: the figure for `CC(C)CN(C#N)NC(=O)O[C@@H](C)CC1CCCCC1` is 0.004 nM; for `CCCN(C#N)NC(=O)O[C@@H](C)CC1CCCCC1` it is 0.004 nM; for `C[C@@H](CC1CCCCC1)OC(=O)N(C)N(C)C#N` it is 62 nM.
In turn, `CC(C)(C)OC(=O)[C@@H]1CCCN1C#N` yielded a Ki on Cathepsin K [1] of 60 nM.
Regarding `C[C@@H](CC1CCCCC1)NC(=O)CN(C)C#N`, at Cathepsin K [2], the affinity corresponds to a Ki of 830 nM.
Consider `CC(C)N(C#N)NC(=O)O[C@@H](C)CC1CCCCC1`, for which the Ki at Procathepsin L came to 0.79 nM; on Cathepsin B, 1.3 nM; on Cathepsin K [2], 0.019 nM; at Pro-cathepsin H it was 0.46 nM.
On to `C[C@@H](CC1CCCCC1)OC(=O)NN(C#N)Cc1ccccc1`, for which the Ki at Cathepsin K [2] is 0.006 nM.
`N#CN1CCCC1` [CYANO-PYRROLIDINE] registered a Ki at Cathepsin K [1] of 2100 nM.
